Results from the supplement of paper PMC4862054.

Columns and labels:
Settings in all cases: 72 h
BT-474 = tested on: BT-474
Method in brief: (§1)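 In this assay, breast cancer cell lines spent 72 h with compound at 5 concentrations in 10-fold steps over a compound-specific 10,000-fold range. The first readout was cell death by CellTox Green fluorescence, and the second was viability by CellTiter-Glo luminescence, each normalised per plate to 0.1 % DMSO and a positive kill control. EC50 came from the dose-response curves, censored at the top concentration.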

BT-549 = tested on: BT-549
Method in brief: as §1

CAL-120 = tested on: CAL-120
Method in brief: as §1

MCF-10A = tested on: MCF-10A
Method in brief: as §1

MDA-MB-453 = tested on: MDA-MB-453
Method in brief: as §1

MDA-MB-468 = tested on: MDA-MB-468
Method in brief: as §1

MFM-223 = tested on: MFM-223
Method in brief: as §1

SK-BR-3 = tested on: SK-BR-3
Method in brief: as §1

CAL-148 = tested on: CAL-148
Method in brief: as §1

CAL-51 = tested on: CAL-51
Method in brief: as §1

CAL-85-1 = tested on: CAL-85-1
Method in brief: as §1

DU-4475 = tested on: DU-4475
Method in brief: as §1

HCC1143 = tested on: HCC1143
Method in brief: as §1

HCC1937 = tested on: HCC1937
Method in brief: as §1

HDQ-P1 = tested on: HDQ-P1
Method in brief: as §1

Hs578T = tested on: Hs578T
Method in brief: as §1

MDA-MB-231 = tested on: MDA-MB-231
Method in brief: as §1

MDA-MB-436 = tested on: MDA-MB-436
Method in brief: as §1

EC50, CellTiter-Glo (BT-474)	EC50, CellTiter-Glo (BT-549)	EC50, CellTiter-Glo (MDA-MB-453)	EC50, CellTiter-Glo (MDA-MB-468)	EC50, CellTiter-Glo (SK-BR-3)	EC50, CellTiter-Glo (HCC1143)	EC50, CellTiter-Glo (HCC1937)	EC50, CellTiter-Glo (MDA-MB-231)	EC50, CellTiter-Glo (MDA-MB-436)	Compound	EC50, CellTiter-Glo (CAL-120)	EC50, CellTiter-Glo (MCF-10A)	EC50, CellTiter-Glo (MFM-223)	EC50, CellTiter-Glo (CAL-148)	EC50, CellTiter-Glo (CAL-51)	EC50, CellTiter-Glo (CAL-85-1)	EC50, CellTiter-Glo (DU-4475)	EC50, CellTiter-Glo (HDQ-P1)	EC50, CellTiter-Glo (Hs578T)
699 nM	139 nM	–	85 nM	491 nM	359 nM	333 nM	287 nM	176 nM	CC[C@H](CC#N)OC(=O)N[C@@H](C)c1cccc(NC(=O)Nc2ccc(-c3cnco3)c(OC)c2)c1 [AVN944]	376 nM	176 nM	859 nM	236 nM	196 nM	174 nM	465 nM	198 nM	532 nM
> 10000 nM	600 nM	783 nM	656 nM	814 nM	1590 nM	2350 nM	–	> 10000 nM	CC(C)NC[C@@H](C(=O)N1CCN(c2ncnc3c2[C@H](C)C[C@H]3O)CC1)c1ccc(Cl)cc1 [GDC-0068]	819 nM	1150 nM	139 nM	177 nM	2780 nM	6480 nM	2070 nM	271 nM	1150 nM
4570 nM	3210 nM	2690 nM	2980 nM	2750 nM	–	–	3820 nM	5170 nM	CCCc1cc(C)[nH]c(=O)c1CNC(=O)c1cc(-c2ccnc(N3CCN(C)CC3)c2)cc2c1cnn2C(C)C [GSK343]	–	–	7400 nM	1860 nM	–	7160 nM	2380 nM	–	–
31.9 nM	22.7 nM	16.8 nM	40.6 nM	8.43 nM	38.2 nM	173 nM	37.4 nM	23.6 nM	CC(C)n1nc(-c2ccc3oc(N)nc3c2)c2c(N)ncnc21 [INK128]	27.8 nM	43 nM	15.4 nM	32.2 nM	15.9 nM	25.5 nM	188 nM	24 nM	27.8 nM
–	137 nM	472 nM	–	280 nM	–	–	–	–	NC1(c2ccc(-c3nc4ccn5c(=O)[nH]nc5c4cc3-c3ccccc3)cc2)CCC1 [MK-2206]	–	–	436 nM	279 nM	–	–	> 1000 nM	–	> 1000 nM

Continued, compound first:

Compound	EC50, CellTiter-Glo (BT-474)	EC50, CellTiter-Glo (BT-549)	EC50, CellTiter-Glo (MDA-MB-453)	EC50, CellTiter-Glo (MDA-MB-468)	EC50, CellTiter-Glo (SK-BR-3)	EC50, CellTiter-Glo (HCC1143)	EC50, CellTiter-Glo (HCC1937)	EC50, CellTiter-Glo (MDA-MB-231)	EC50, CellTiter-Glo (MDA-MB-436)	EC50, CellTiter-Glo (CAL-120)	EC50, CellTiter-Glo (MCF-10A)	EC50, CellTiter-Glo (MFM-223)	EC50, CellTiter-Glo (CAL-148)	EC50, CellTiter-Glo (CAL-51)	EC50, CellTiter-Glo (CAL-85-1)	EC50, CellTiter-Glo (DU-4475)	EC50, CellTiter-Glo (HDQ-P1)	EC50, CellTiter-Glo (Hs578T)
CC(C)(C)Cn1c(N)nc2ccc(-c3[nH]c(C(C)(C)C)nc3-c3ccc(F)cc3)nc21	> 10000 nM	3340 nM	1910 nM	6760 nM	3050 nM	–	–	–	–	> 10000 nM	4590 nM	3110 nM	–	–	–	–	–	–
CC(C)C[C@H](NC(=O)[C@H](CCc1ccccc1)NC(=O)CN1CCOCC1)C(=O)N[C@@H](Cc1ccccc1)C(=O)N[C@@H](CC(C)C)C(=O)[C@@]1(C)CO1 [Carfilzomib]	13.8 nM	3.63 nM	7.36 nM	3.42 nM	5.41 nM	8.56 nM	17.2 nM	16.9 nM	6.13 nM	25.3 nM	90.6 nM	3.9 nM	33.1 nM	13.1 nM	8.12 nM	42.8 nM	19.1 nM	12.4 nM
Nc1nc(Cl)nc2c1ncn2[C@@H]1O[C@H](CO)[C@@H](O)[C@@H]1F [Clofarabine]	196 nM	211 nM	–	627 nM	201 nM	320 nM	–	524 nM	219 nM	305 nM	675 nM	–	601 nM	261 nM	398 nM	872 nM	482 nM	3150 nM
CCN(CC)CCOc1ccc(C(=C(Cl)c2ccccc2)c2ccccc2)cc1 [Clomifene]	3940 nM	1980 nM	2910 nM	–	6000 nM	–	2900 nM	3540 nM	–	–	9400 nM	6660 nM	–	–	2390 nM	3460 nM	–	2760 nM
C[C@@H]1C[C@H]2[C@@H]3CCC4=CC(=O)C=C[C@]4(C)[C@@]3(F)[C@@H](O)C[C@]2(C)[C@@]1(O)C(=O)CO [Dexamethasone]	–	–	379 nM	–	–	–	–	–	–	7.49 nM	–	–	–	–	–	–	–	–
CCc1cnn2c(NCc3ccc[n+]([O-])c3)cc(N3CCCC[C@H]3CCO)nc12 [Dinaciclib]	12.9 nM	13.9 nM	26.1 nM	23.7 nM	6.99 nM	12 nM	21.9 nM	5.9 nM	9 nM	17.9 nM	45.8 nM	21.2 nM	26.9 nM	12.8 nM	5.42 nM	20.6 nM	12.3 nM	16 nM
COc1cc2c(Oc3ccc(NC(=O)C4(C(=O)Nc5ccc(F)cc5)CC4)cc3F)ccnc2cc1OCCCN1CCOCC1 [Foretinib]	145 nM	–	–	772 nM	–	317 nM	–	600 nM	> 1000 nM	179 nM	854 nM	111 nM	610 nM	490 nM	–	–	–	–
COc1cc(Nc2ncc(F)c(Nc3ccc4c(n3)N(COP(=O)(O)O)C(=O)C(C)(C)O4)n2)cc(OC)c1OC [Fostamatinib]	1160 nM	599 nM	–	–	> 2500 nM	530 nM	> 2500 nM	452 nM	–	405 nM	451 nM	222 nM	–	–	1560 nM	–	1660 nM	938 nM
COc1cc2c(cc1-c1c(C)noc1C)ncc1[nH]c(=O)n([C@H](C)c3ccccn3)c12 [I-BET151]	6720 nM	673 nM	2190 nM	3110 nM	1220 nM	1380 nM	537 nM	1310 nM	–	574 nM	855 nM	913 nM	–	1380 nM	834 nM	4080 nM	1340 nM	678 nM
N[C@@H](Cc1ccc(N(CCCl)CCCl)cc1)C(=O)O [Melphalan]	313 nM	758 nM	213 nM	203 nM	247 nM	739 nM	235 nM	237 nM	501 nM	1220 nM	424 nM	310 nM	268 nM	182 nM	444 nM	322 nM	297 nM	518 nM
CO[C@H](C(=O)[C@@H](O)[C@@H](C)O)[C@@H]1Cc2cc3cc(O[C@H]4C[C@@H](O[C@@H]5C[C@@H](O)[C@H](O)[C@@H](C)O5)[C@H](O)[C@@H](C)O4)c(C)c(O)c3c(O)c2C(=O)[C@H]1O[C@H]1C[C@@H](O[C@@H]2C[C@@H](O)[C@@H](O[C@@H]3C[C@](C)(O)[C@H](O)[C@@H](C)O3)[C@@H](C)O2)[C@H](O)[C@@H](C)O1 [Plicamycin]	2440 nM	2340 nM	5310 nM	2510 nM	4530 nM	3910 nM	4190 nM	3020 nM	6150 nM	6760 nM	4120 nM	7030 nM	4000 nM	240 nM	4270 nM	3220 nM	5650 nM	4220 nM
CO[C@H]1C[C@@H]2CC[C@@H](C)[C@@](O)(O2)C(=O)C(=O)N2CCCC[C@H]2C(=O)O[C@H]([C@H](C)C[C@@H]2CC[C@@H](O)[C@H](OC)C2)CC(=O)[C@H](C)/C=C(\C)[C@@H](O)[C@@H](OC)C(=O)[C@H](C)C[C@H](C)/C=C/C=C/C=C/1C [Sirolimus]	3.4 nM	1.85 nM	4.84 nM	0.65 nM	4.12 nM	3.09 nM	6.4 nM	–	2.96 nM	3.4 nM	–	3.87 nM	3.6 nM	2.33 nM	0.95 nM	16.1 nM	7.92 nM	1.24 nM
CN1CCN(c2nc(C3=C(c4c[nH]c5ccccc45)C(=O)NC3=O)c3ccccc3n2)CC1 [Sotrastaurin]	–	–	–	–	1460 nM	–	–	–	–	–	–	–	–	–	–	6790 nM	> 10000 nM	–
CC/C(=C(\c1ccccc1)c1ccc(OCCN(C)C)cc1)c1ccccc1 [Tamoxifen]	–	–	2560 nM	–	> 10000 nM	–	> 10000 nM	–	–	> 10000 nM	–	3370 nM	–	233 nM	–	–	–	–
CC[C@@H]1C(=O)N(C)c2cnc(Nc3ccc(C(=O)N[C@H]4CC[C@H](N5CCN(CC6CC6)CC5)CC4)cc3OC)nc2N1C(C)C [Volasertib]	7.02 nM	20.4 nM	0.7 nM	6.98 nM	8.82 nM	22.5 nM	82.3 nM	9.75 nM	3.59 nM	46.6 nM	33.2 nM	4.62 nM	8.07 nM	16.9 nM	8.51 nM	25.4 nM	53.1 nM	76.9 nM
